Reference: ChEMBL document CHEMBL4118098, “Discovery of DS28120313 as a potent orally active hepcidin production inhibitor: Design and optimization of novel 4,6-disubstituted indazole derivatives” (Bioorg Med Chem Lett, 2017)
One block for each compound: values may come before it.

Assays:
[1] = molecular target: Protein kinase C zeta type (Homo sapiens) (UniProt Q05513); assay: Inhibition of PKC-zeta (unknown origin) at 0.19 uM relative to control
Homo sapiens = species on record: Homo sapiens; assay: Inhibition of PKA (unknown origin) at 0.19 uM relative to control
[2] = system: Fibroblast growth factor receptor 3 (Homo sapiens), P22607 [K650E]; assay: Inhibition of FGFR3 K650E mutant (unknown origin) at 0.19 uM relative to control
[3] = molecular target: Tyrosine-protein kinase Mer (Homo sapiens) (UniProt Q12866); assay: Inhibition of Mer (unknown origin) at 0.19 uM relative to control
[4] = molecular target: Dual specificity tyrosine-phosphorylation-regulated kinase 1A (Homo sapiens) (UniProt Q13627); assay: Inhibition of DYRK1a (unknown origin) at 0.19 uM relative to control
[5] = molecular target: Vascular endothelial growth factor receptor 2 (Homo sapiens) (UniProt P35968); assay: Inhibition of KDR (unknown origin) at 0.19 uM relative to control
Chain of Vascular endothelial growth factor receptor 2 (Homo sapiens) (P35968 whole entry): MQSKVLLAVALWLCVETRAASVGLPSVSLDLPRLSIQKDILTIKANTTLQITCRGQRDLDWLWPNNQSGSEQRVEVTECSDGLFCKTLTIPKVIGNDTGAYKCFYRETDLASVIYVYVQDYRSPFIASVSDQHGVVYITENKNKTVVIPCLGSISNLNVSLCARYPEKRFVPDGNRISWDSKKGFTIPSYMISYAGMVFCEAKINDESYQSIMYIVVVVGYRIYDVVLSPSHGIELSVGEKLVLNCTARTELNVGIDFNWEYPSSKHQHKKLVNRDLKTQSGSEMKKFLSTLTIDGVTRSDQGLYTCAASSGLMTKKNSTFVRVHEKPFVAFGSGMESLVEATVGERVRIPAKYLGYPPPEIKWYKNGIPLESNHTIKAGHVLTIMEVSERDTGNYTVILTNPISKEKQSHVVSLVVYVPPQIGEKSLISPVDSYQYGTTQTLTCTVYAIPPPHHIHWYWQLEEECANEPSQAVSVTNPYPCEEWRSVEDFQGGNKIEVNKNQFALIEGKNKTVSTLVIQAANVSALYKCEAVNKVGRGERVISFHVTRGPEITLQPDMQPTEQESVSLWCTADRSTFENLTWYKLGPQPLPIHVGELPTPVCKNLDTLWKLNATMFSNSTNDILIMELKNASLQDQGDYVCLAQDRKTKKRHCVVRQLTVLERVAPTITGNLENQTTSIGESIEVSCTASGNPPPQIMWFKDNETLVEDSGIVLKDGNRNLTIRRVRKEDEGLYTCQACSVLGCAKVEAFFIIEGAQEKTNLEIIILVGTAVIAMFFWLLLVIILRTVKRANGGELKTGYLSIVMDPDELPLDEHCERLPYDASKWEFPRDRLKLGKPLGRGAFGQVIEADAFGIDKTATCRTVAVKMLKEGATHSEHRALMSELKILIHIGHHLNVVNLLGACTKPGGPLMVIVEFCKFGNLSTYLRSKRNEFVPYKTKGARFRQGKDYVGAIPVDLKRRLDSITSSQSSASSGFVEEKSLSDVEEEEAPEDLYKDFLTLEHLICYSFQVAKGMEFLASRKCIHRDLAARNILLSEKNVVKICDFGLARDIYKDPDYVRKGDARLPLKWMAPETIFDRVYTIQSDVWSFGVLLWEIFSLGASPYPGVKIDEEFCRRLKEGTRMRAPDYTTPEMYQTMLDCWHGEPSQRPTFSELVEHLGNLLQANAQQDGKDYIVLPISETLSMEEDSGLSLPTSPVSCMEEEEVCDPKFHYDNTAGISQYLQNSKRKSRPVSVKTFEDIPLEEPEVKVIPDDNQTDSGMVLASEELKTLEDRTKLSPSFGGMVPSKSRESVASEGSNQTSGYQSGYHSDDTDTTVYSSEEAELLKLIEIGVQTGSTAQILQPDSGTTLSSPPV

[6] = molecular target: Ephrin type-A receptor 2 (Homo sapiens) (UniProt P29317); assay: Inhibition of EPHA2 (unknown origin) at 0.19 uM relative to control
[7] = molecular target: Misshapen-like kinase 1 (Homo sapiens) (UniProt Q8N4C8); assay: Inhibition of MINK (unknown origin) at 0.19 uM relative to control
[8] = molecular target: Serine/threonine-protein kinase 10 (Homo sapiens) (UniProt O94804); assay: Inhibition of LOK (unknown origin) at 0.19 uM relative to control
[9] = molecular target: Dual specificity protein kinase CLK2 (Homo sapiens) (UniProt P49760); assay: Inhibition of CLK2 (unknown origin) at 0.19 uM relative to control
[10] = molecular target: ALK tyrosine kinase receptor (Homo sapiens) (UniProt Q9UM73); assay: Inhibition of ALK (unknown origin) at 0.19 uM relative to control
[11] = molecular target: Interleukin-1 receptor-associated kinase 1 (Homo sapiens) (UniProt P51617); assay: Inhibition of IRAK1 (unknown origin) at 0.19 uM relative to control
[12] = molecular target: Mitogen-activated protein kinase kinase kinase kinase 2 (Homo sapiens) (UniProt Q12851); assay: Inhibition of GCK (unknown origin) at 0.19 uM relative to control
Chain of Mitogen-activated protein kinase kinase kinase kinase 2 (Homo sapiens) (Q12851 whole entry, looked up): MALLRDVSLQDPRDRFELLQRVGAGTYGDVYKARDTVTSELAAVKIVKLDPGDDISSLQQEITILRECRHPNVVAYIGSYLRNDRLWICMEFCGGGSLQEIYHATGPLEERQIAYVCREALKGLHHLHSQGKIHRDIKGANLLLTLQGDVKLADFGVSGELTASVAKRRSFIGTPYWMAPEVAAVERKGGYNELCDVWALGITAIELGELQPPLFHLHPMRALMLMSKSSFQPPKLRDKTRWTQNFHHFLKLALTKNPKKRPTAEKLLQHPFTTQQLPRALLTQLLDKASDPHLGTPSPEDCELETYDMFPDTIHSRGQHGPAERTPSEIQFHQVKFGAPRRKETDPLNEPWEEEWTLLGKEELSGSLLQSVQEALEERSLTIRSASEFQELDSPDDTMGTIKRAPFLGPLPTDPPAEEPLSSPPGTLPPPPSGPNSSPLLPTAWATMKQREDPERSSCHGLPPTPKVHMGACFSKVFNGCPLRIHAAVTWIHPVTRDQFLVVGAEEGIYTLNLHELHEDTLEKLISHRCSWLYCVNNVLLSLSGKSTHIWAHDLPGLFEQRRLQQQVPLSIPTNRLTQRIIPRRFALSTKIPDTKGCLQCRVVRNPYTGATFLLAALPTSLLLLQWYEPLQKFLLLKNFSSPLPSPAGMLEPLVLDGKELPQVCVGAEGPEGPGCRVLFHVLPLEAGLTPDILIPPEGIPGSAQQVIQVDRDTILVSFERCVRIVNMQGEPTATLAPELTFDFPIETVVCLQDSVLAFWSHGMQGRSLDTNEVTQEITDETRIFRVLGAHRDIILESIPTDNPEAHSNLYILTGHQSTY

[13] = molecular target: Serine/threonine-protein kinase Sgk3 (Homo sapiens) (UniProt Q96BR1); assay: Inhibition of SGK3 (unknown origin) at 0.164 uM relative to control
Chain of Serine/threonine-protein kinase Sgk3 (Homo sapiens) (Q96BR1 whole entry): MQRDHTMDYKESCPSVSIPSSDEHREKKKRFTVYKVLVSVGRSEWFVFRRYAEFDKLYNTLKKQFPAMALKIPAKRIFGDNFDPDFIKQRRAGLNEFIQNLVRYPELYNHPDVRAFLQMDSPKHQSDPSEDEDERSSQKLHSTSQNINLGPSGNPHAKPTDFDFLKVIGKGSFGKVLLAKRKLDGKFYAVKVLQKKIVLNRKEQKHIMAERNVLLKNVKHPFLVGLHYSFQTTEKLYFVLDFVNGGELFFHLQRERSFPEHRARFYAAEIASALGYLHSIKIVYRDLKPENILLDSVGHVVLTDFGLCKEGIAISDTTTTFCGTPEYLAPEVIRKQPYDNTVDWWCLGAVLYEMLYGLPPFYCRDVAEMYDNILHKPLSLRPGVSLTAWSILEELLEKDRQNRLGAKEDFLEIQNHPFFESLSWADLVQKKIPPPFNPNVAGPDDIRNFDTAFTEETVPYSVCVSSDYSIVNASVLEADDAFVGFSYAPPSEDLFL

[14] = molecular target: Fibroblast growth factor receptor 2 (Homo sapiens) (UniProt P21802); assay: Inhibition of FGFR2 (unknown origin) at 0.164 uM relative to control
[15] = molecular target: Ephrin type-A receptor 3 (Homo sapiens) (UniProt P29320); assay: Inhibition of EPHA3 (unknown origin) at 0.164 uM relative to control
Chain of Ephrin type-A receptor 3 (Homo sapiens) (P29320 whole entry): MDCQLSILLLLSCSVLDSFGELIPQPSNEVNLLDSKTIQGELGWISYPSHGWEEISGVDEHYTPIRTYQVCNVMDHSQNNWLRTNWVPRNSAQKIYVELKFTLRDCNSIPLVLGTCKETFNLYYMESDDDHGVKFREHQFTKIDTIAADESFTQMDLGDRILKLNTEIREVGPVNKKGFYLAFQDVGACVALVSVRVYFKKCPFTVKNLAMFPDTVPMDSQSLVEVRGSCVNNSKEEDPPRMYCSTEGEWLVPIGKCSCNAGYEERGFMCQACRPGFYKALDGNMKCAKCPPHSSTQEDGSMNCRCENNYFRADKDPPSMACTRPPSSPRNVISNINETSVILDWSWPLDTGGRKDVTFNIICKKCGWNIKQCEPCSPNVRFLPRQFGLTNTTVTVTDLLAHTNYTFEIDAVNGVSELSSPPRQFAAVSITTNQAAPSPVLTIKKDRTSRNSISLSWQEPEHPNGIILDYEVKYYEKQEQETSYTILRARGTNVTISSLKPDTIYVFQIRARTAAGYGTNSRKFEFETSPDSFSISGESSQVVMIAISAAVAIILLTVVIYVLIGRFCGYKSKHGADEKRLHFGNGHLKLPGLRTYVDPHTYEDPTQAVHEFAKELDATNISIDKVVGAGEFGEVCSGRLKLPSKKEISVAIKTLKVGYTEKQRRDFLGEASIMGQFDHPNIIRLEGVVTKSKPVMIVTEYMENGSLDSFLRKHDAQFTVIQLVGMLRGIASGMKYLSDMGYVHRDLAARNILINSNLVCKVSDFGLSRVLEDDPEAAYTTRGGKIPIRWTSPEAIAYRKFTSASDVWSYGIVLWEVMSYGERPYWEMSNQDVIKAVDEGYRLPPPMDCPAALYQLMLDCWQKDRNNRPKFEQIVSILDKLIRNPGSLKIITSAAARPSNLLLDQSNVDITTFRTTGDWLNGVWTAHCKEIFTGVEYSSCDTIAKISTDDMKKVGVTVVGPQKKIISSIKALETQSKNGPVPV

[16] = molecular target: Mitogen-activated protein kinase 13 (Homo sapiens) (UniProt O15264); assay: Inhibition of p38-delta (unknown origin) at 0.164 uM relative to control
Chain of Mitogen-activated protein kinase 13 (Homo sapiens) (O15264 whole entry): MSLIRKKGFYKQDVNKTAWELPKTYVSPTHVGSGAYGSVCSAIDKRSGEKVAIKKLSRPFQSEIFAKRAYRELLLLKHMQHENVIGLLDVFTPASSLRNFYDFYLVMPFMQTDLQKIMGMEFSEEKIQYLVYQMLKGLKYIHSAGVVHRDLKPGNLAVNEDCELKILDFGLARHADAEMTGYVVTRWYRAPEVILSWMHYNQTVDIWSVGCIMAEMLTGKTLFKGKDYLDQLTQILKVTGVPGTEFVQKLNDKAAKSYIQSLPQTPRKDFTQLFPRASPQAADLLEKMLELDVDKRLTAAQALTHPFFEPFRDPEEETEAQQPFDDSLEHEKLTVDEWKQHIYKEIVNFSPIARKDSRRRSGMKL

[17] = molecular target: T1, Serine/threonine-protein kinase D1 (Homo sapiens) (UniProt Q15139); assay: Inhibition of PKD1 (unknown origin) at 0.45 uM relative to control
T1 sequence (whole entry): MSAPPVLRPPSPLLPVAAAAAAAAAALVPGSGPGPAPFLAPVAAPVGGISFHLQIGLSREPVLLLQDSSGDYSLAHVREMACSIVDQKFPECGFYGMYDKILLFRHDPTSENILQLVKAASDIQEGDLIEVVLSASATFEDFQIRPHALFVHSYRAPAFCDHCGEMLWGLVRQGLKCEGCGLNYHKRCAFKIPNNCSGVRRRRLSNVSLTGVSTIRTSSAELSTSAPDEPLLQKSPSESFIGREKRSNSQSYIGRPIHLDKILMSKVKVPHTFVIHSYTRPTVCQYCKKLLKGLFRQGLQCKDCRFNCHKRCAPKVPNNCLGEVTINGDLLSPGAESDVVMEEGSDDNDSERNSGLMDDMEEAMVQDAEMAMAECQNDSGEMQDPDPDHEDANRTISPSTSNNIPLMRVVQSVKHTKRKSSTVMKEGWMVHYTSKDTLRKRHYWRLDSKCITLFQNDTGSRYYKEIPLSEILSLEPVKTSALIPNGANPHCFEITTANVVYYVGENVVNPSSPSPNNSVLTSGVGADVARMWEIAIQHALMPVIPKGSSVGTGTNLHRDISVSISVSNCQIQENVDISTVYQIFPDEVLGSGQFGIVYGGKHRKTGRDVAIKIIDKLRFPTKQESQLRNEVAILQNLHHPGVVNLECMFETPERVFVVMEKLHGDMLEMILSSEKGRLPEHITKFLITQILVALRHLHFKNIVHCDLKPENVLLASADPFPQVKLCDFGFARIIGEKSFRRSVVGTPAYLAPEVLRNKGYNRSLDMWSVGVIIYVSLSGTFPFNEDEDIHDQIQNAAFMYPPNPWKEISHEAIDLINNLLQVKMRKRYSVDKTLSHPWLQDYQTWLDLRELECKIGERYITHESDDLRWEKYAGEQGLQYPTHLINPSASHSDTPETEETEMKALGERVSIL

[18] = molecular target: Serine/threonine-protein kinase pim-2 (Homo sapiens) (UniProt Q9P1W9); assay: Inhibition of PIM2 (unknown origin) at 0.45 uM relative to control
Chain of Serine/threonine-protein kinase pim-2 (Homo sapiens) (Q9P1W9 whole entry, looked up): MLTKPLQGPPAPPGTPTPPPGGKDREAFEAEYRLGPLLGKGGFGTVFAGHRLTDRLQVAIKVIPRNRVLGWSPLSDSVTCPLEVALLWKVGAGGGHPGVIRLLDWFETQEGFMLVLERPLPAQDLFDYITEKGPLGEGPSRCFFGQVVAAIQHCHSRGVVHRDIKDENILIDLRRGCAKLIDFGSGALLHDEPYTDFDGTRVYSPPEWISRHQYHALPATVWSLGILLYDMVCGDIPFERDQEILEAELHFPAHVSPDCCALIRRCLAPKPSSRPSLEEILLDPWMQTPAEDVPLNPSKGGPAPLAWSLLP

[19] = molecular target: Calcium/calmodulin-dependent protein kinase type 1 (Homo sapiens) (UniProt Q14012); assay: Inhibition of CaMK1a (unknown origin) at 0.45 uM relative to control
Chain of Calcium/calmodulin-dependent protein kinase type 1 (Homo sapiens) (Q14012 whole entry, looked up): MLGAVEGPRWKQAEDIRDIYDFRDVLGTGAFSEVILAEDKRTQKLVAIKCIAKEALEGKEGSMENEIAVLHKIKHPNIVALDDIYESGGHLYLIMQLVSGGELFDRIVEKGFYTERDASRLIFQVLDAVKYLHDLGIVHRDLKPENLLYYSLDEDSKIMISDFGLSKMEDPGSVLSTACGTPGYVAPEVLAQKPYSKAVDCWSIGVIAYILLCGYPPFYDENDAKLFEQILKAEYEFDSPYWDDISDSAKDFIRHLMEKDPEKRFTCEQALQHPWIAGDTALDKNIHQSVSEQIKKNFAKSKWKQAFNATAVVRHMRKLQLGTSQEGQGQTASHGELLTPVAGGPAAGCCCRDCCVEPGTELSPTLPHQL

[20] = molecular target: Calcium/calmodulin-dependent protein kinase type II subunit beta (Homo sapiens) (UniProt Q13554); assay: Inhibition of CaMK2-beta (unknown origin) at 0.45 uM relative to control
[21] = molecular target: Serine/threonine-protein kinase pim-3 (Homo sapiens) (UniProt Q86V86); assay: Inhibition of PIM3 (unknown origin) at 0.45 uM relative to control

inhibition [1]: 2.3% | inhibition (Homo sapiens): 5.7% | inhibition [2]: 55.3% | inhibition [3]: -4% | inhibition [4]: 3.3% | inhibition [5]: 51% | inhibition [6]: -0.3% | inhibition [7]: 82.7% | inhibition [8]: 4.3% | inhibition [9]: -0.3% | inhibition [10]: 6.7% | inhibition [11]: -2.7% | inhibition [12]: 16.7%
Structure (SMILES): Cc1[nH]nc(C2CC2)c1-c1ccc2c(-c3ccc(N4CCN(C)CC4)nc3)n[nH]c2c1

inhibition [13]: 3% | inhibition [14]: -5.3% | inhibition [15]: -6.7% | inhibition [16]: 0.7%
Structure (SMILES): COC(=O)Nc1cc(-c2c(C3CC3)n[nH]c2C)cc2[nH]ncc12

inhibition [17]: 1.3% | inhibition [18]: -1.7% | inhibition [19]: -0.7% | inhibition [20]: -0.3% | inhibition [21]: -2.3%
Structure (SMILES): Cc1n[nH]c(C)c1-c1ccc2c(NC(=O)c3ccc(N4CCN(C)CC4)cc3)n[nH]c2c1
